According to PMC9781087, “Discovery of New Microbial Collagenase Inhibitors” (Life, 2022):
Like-named read-outs stand apart in the source and are kept apart here.

Experiments:
collagenase A (ColA) = collagenase A (ColA) (Clostridium perfringens, UniProt P43153); experiment: biochemical; parameters: species or system C. perfringens; settings: for Inhibition (%) on ColA: after 30 min of incubation
mice = system: mice; parameters: method as in PMID 34684834; settings: acute toxicity; cited from earlier work
[1] = system: neuraminidase protein of Clostridium perfringens; settings: cited from earlier work
[2] = target: collagenase from Clostridium histolyticum; parameters: method as in PMID 16276971; settings: cited from earlier work
Solubility = settings: in words
[3] = system: rats intratendineously injected with collagenase; parameters: method as in PMID 28165813; settings: intragastrical administration, 100 mg/kg; cited from earlier work
[4] = system: Staphylococcus aureus, Enterococcus faecalis, and Staphylococcus epidermidis; parameters: method as in PMID 31486108; settings: cited from earlier work
[5] = 50 µM, mean ± SD of three replications
[6] = read-out: Inhibition (%) on ColA
[7] = read-out: Inhibition(%) on ColA
[8] = 5 µM, mean ± SD of three replications
[9] = 100 µM, mean ± SD of three replications (five-dose assay)
[10] = 100 µM, preliminary screening (Table S1), * = compound precipitated due to low solubility

collagenase A (ColA), sequence (P43153 87-1104 limits assumed): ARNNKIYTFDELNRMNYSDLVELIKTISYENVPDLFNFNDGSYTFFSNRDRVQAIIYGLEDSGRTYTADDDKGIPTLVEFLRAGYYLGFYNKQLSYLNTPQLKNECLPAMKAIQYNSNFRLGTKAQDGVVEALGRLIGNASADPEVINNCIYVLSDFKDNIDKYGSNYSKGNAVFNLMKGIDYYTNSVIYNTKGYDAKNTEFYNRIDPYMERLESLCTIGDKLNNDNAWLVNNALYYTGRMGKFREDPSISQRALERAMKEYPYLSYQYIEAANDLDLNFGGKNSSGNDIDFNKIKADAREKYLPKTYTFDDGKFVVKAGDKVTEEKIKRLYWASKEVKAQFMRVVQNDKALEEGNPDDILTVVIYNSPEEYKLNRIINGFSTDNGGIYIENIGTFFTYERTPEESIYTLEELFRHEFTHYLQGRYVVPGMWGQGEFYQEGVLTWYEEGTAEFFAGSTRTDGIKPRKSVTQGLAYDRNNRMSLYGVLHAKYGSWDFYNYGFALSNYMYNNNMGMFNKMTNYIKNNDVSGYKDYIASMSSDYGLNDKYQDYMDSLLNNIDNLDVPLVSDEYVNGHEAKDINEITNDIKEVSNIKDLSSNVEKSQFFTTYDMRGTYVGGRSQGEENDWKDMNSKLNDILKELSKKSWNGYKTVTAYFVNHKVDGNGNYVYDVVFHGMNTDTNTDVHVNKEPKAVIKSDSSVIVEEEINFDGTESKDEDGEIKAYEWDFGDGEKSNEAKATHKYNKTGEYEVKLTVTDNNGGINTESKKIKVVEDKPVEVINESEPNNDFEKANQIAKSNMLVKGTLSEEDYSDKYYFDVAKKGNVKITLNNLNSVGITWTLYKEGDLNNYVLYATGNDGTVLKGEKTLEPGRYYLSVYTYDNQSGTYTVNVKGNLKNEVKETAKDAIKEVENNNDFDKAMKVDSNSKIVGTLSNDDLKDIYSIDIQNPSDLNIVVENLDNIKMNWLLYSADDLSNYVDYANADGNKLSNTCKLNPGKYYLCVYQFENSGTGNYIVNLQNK

Compound	inhibition at 1 µM (collagenase A (ColA); [6])	inhibition at 5 µM (collagenase A (ColA); [6])	inhibition at 10 µM (collagenase A (ColA); [6])	inhibition at 100 µM (collagenase A (ColA); [7])	further results
COc1cc2c(cc1OC)-c1cc3ccc(OC)c(OC)c3c[n+]1CC2 [Palmatine chloride, palmatine chloride]	15.5 ± 3.9%	35.4 ± 1.8%	84.9 ± 1.5%	103%	Inhibition (%) on ColA (collagenase A (ColA); [5]): Almost complete inhibition; inhibition at 50 µM (collagenase A (ColA); [6]): 97.9 ± 1.6%; inhibition at 100 µM (collagenase A (ColA); [6]): 98.7 ± 0.4%; lethal dose 50 (mice): 1533.68 mg/kg; neuraminidase inhibition (in words) [1]: potent effect
O=c1c(O)c(-c2ccc(O)c(O)c2)oc2cc(O)cc(O)c12 [quercetin]	–	–	–	–	IC50 [2]: 286 µM
O=C(/C=C/C=C/c1ccc2c(c1)OCO2)N1CCCCC1 [Piperine, piperine]	84.5 ± 0.4%	82.4 ± 0.4%	72.5 ± 2.7%	81.1%	IC50 (in words) (collagenase A (ColA)): nanomolar range; inhibitory effect on ColA (in words) (collagenase A (ColA)): potent inhibitory effects on ColA, even at small concentration; solubility (Solubility): low solubility; morphological structure of rats' tendons [3]: improvement of the morphological structure
O=c1cc(-c2ccc(O)cc2)oc2cccc(O)c12 [4′,5-Dihydroxyflavone, 4′,5-dihydroxyflavone]	-48 ± 3.6%	101.6 ± 0.6%	107.5 ± 1%	15%	IC50 (in words) (collagenase A (ColA)): nanomolar range; inhibitory effect on ColA (in words) (collagenase A (ColA)): potently inhibits its activity; Inhibition (%) on ColA (collagenase A (ColA); [8]): Almost complete inhibition; inhibition at 50 µM (collagenase A (ColA); [6]): 101 ± 1.9%; inhibition at 100 µM (collagenase A (ColA); [6]): 105 ± 2.9%
O=c1cc(-c2ccc(O)cc2)oc2cc(O)cc(O)c12 [apigenin]	–	–	–	2.7%	–
COc1ccc(-c2oc3ccccc3c(=O)c2O)cc1 [4'-methoxyflavonol, 4′-methoxyflavonol]	–	–	–	3.7%	–
O=C(O)C=Cc1cccc(O)c1 [3-hydroxycinnamic acid]	–	–	–	0.8%	–
O=C(/C=C/c1ccccc1)c1ccccc1O [2′-Hydroxychalcone, 2′-hydroxychalcone]	-12.1 ± 0.2%	1.2 ± 0.9%	6.5 ± 1.3%	87.8%	inhibitory effect on ColA (in words) (collagenase A (ColA)): potent inhibitory effect; Inhibition (%) on ColA (collagenase A (ColA); [9]): Almost complete inhibition; inhibition at 50 µM (collagenase A (ColA); [6]): 21.8 ± 1.2%; inhibition at 100 µM (collagenase A (ColA); [6]): 97.3 ± 1.3%
O=C(O)c1cc(O)c2c(c1)C(=O)c1cccc(O)c1C2=O [Rhein, rhein]	2.6 ± 0.6%	22.9 ± 2.7%	37.4 ± 3.2%	78.5%	inhibitory effect on ColA (in words) (collagenase A (ColA)): potent inhibitors of ColA; inhibition at 50 µM (collagenase A (ColA); [6]): 77.3 ± 2.2%; inhibition at 100 µM (collagenase A (ColA); [6]): 80.6 ± 1%
O=C(O)[C@@H](S)[C@@H](S)C(=O)O [meso-2,3-dimercaptosuccinic acid, reference compound]	–	–	–	25.6%	–
O=C1c2ccccc2C(=O)c2c(O)ccc(O)c21 [1,4-dihydroxyanthraquinone]	–	–	–	3.2%	–
COc1ccc(-c2coc3cc(O)cc(O)c3c2=O)cc1 [Biochanin A, biochanin A]	-24.8 ± 5.3%	23 ± 2.6%	34.1 ± 2.2%	57.9%	inhibitory effect on ColA (in words) (collagenase A (ColA)): potent inhibitory effect; Inhibition (%) on ColA (collagenase A (ColA); [5]): Almost complete inhibition; inhibition at 50 µM (collagenase A (ColA); [6]): 99.1 ± 1%; inhibition at 100 µM (collagenase A (ColA); [6]): 76.1 ± 0.7%
myricitrin	–	–	–	–	inhibitory effect on ColA (in words) (collagenase A (ColA)): low inhibitory effect
C[C@H](N)C(=O)O [L-alanine]	–	–	–	3.1%	–
C[C@@]12C(=O)OC(=O)[C@]1(C)[C@H]1CC[C@@H]2O1 [cantharidin]	–	–	–	26.8%	–
Cc1ccc(S(=O)(=O)NC(N)=O)cc1 [4-methylphenylsulfonylurea]	–	–	–	19.6%	–
O=C(/C=C/c1ccc(O)c(O)c1)O[C@@H]1C[C@](O)(C(=O)O)C[C@@H](O)[C@H]1O [chlorogenic acid]	–	–	–	4.8%	–

Compound	inhibition at 1 µM (collagenase A (ColA); [6])	inhibition at 5 µM (collagenase A (ColA); [6])	inhibition at 10 µM (collagenase A (ColA); [6])	inhibition at 100 µM (collagenase A (ColA); [7])	further results
O=c1c(O)c(-c2ccccc2)oc2ccccc12 [3-Hydroxyflavone, 3-hydroxyflavone]	-13.4 ± 2.7%	-17 ± 5.1%	17.4 ± 4.5%	27.6%	inhibitory effect on ColA (in words) (collagenase A (ColA)): low impact on the enzyme activity; inhibition at 50 µM (collagenase A (ColA); [6]): 25.1 ± 6.8%; inhibition at 100 µM (collagenase A (ColA); [6]): 31 ± 4.3%
NS(=O)(=O)c1cc2c(cc1C(F)(F)F)NC(Cc1ccccc1)NS2(=O)=O (stereo not drawn) [bendroflumethiazide, reference compound]	–	–	–	21.6%	–
O=C1c2ccc(O)cc2OC(c2cc(O)c(O)c(O)c2)C1O (stereo not drawn) [Dihydrorobinetin, dihydrorobinetin]	-16.5 ± 1.6%	-29.7 ± 0.5%	105.1 ± 0.5%	96.9%	Inhibition (%) on ColA (collagenase A (ColA); 10 µM, mean ± SD of three replications): Almost complete inhibition; solubility (Solubility): poor solubility in water
CC(=O)N[C@@H](CS)C(=O)O [acetylcysteine, reference compound]	–	–	–	3.4%	–
CC1(C)[C@H](C(=O)O)N2C(=O)C[C@H]2S1(=O)=O [sulbactam, reference compound]	–	–	–	-10.7%	–
CC1=CC(=O)c2c(O)cccc2C1=O [plumbagin]	–	–	–	-7.7%	–
COc1cc(CNC(=O)CCCC/C=C/C(C)C)ccc1O [Capsaicin, capsaicin, reference compound]	–	–	–	–	IC50 (in words) (collagenase A (ColA)): nanomolar range; Inhibition (%) on ColA (collagenase A (ColA); 1 µM, mean ± SD of three replications, 1 µM): 94.8 ± 0.8%; Inhibition (%) on ColA (collagenase A (ColA); 1 µM, mean ± SD of three replications, listed as capsaicin, 1 µM): Almost complete inhibition; Inhibition (%) on ColA (collagenase A (ColA); [8]): 100.5 ± 0.8%; Inhibition (%) on ColA (collagenase A (ColA); [10]): 87.9%
Cl.NCCS [cysteamine hydrochloride, reference compound]	–	–	–	–	Inhibition (%) on ColA (collagenase A (ColA); [10]): 2.8%
O=C1C=CC(=O)c2c(O)cccc21 [Juglone, juglone]	13.8 ± 1.5%	50.6 ± 0.5%	69.2 ± 0.4%	–	inhibitory effect on ColA (in words) (collagenase A (ColA)): potent inhibitors of ColA; Inhibition (%) on ColA (collagenase A (ColA); [9]): Almost complete inhibition; inhibition at 50 µM (collagenase A (ColA); [6]): 80.8 ± 0.7%; impact on the bacterial growth [4]: low impact on the bacterial growth
COc1ccc2cc3[n+](cc2c1OC)CCc1cc2c(cc1-3)OCO2 [berberine]	–	–	–	-2.5%	–
C/C(=C(\CCOP(=O)(O)O)SC(=O)c1ccccc1)N(C=O)Cc1cnc(C)nc1N [benfotiamine, reference compound]	–	–	–	-20.4%	–
O=c1ccc2ccc(O)cc2o1 [umbelliferone]	–	–	–	-10.2%	–
N[C@@H](CS)C(=O)O [cysteine]	–	–	–	1.7%	–
O=c1c(-c2ccc(O)cc2)coc2cc(O)ccc12 [daidzein]	–	–	–	5.8%	–
O=c1ccc2cc(O)c(O)cc2o1 [esculetin]	–	–	–	11.8%	inhibitory effect on ColA (in words) (collagenase A (ColA)): low effects
COc1ccc2[nH]c3c(c2c1)CCNC3C(=O)O (stereo not drawn) [6-methoxy-1,2,3,4-tetrahydro-9H-pyrido [3,4-b]indole-1-carboxylic acid]	-19.9 ± 2.7%	-1.3 ± 2.1%	-5.2 ± 0.7%	18.8%	inhibition at 50 µM (collagenase A (ColA); [6]): 2.8 ± 1.3%; inhibition at 100 µM (collagenase A (ColA); [6]): 19.6 ± 3.9%
COc1cc(/C=C/C(=O)CC(=O)/C=C/c2ccc(O)c(OC)c2)ccc1O [Curcumin, curcumin]	-10 ± 3.9%	101.8 ± 0.6%	102.5 ± 0.8%	102%	inhibitory effect on ColA (in words) (collagenase A (ColA)): very potent ColA inhibitor; Inhibition (%) on ColA (collagenase A (ColA); [8]): Almost complete inhibition; inhibition at 50 µM (collagenase A (ColA); [6]): 101.5 ± 0.4%; inhibition at 100 µM (collagenase A (ColA); [6]): 101.8 ± 0.7%
